Laboratory results published in US6624192B1, “Process for production of diacetylrhein” (Madaus AG, priority 1991, dated 2003).
Blank lines part the entries; values can stand above or below the compound they belong to.

How the values were obtained:
[1] = test system: arthrosis induced by the intraarticular administration of vitamin A; test: Vitamin A arthrosis in rabbits; type: in vivo, rabbit; conditions: for Clinical signs of arthrosis (disturbances of movement): 7 rabbits
Experimental: The effectiveness of diacetylrhein was determined in chronic inflammation models after oral administration. The following experimental models were used: cotton pellet granuloma in rats and arthrosis in rabbits induced by the intraarticular administration of vitamin A. b) Vitamin A arthrosis. An arthrosis-like joint change was initiated in two groups each of 10 rabbits (white New Zealanders) by means of three intraarticular injections of 30,000 IU of Vitamin A over the course of 9 days. 56 days later, 10 animals were treated with 3 mg of diacetylrhein/kg/day for 8 weeks. […] Furthermore, the curative action of diacetylrhein was compared with that of acetylsalicylic acid on each of 7 rabbits which, after 6 days pre-treatment with three times 10,000 IU Vitamin A and a 26 day treatment-free interval for 8 weeks, received either 5 mg of diacetylrhein/kg/day (experimental group) or 15 mg of acetylsalicylic acid/kg/day (positive control group) or remained untreated (negative control group). […] In the negative control group, during the following 8 weeks, the clinical signs of a manifest arthrosis increased.

gastric mucosa = test: Gastric mucosa changes in the rat; type: in vivo
[2] = test system: coxarthrosis and gonarthrosis; test: Clinical double-blind study against naproxen with placebo after-treatment; type: in vivo, patients; conditions: for Improvement in all test parameters (pain and movement symptoms, functional limitation, compatibility) in comparison with the initial values: 60 days
Experimental: 1. The action of diacetylrhein was investigated in coxarthrosis and gonarthrosis in 95 (49/46) patients in a double-blind study against naproxen and subsequent placebo after-treatment. The dosage administered was 50 mg of diacetylrhein twice daily or 750 mg of naproxen daily. The period of treatment was 60 days after a 7 day wash-out phase. The subsequent placebo treatment extended over 60 days.
Test parameters were the pain and movement symptoms according to a score scale, functional limitation and compatibility.

osteoarthrosis = test: Clinical randomised double blind compatibility study (oesophagogastroduodenoscopic findings); type: in vivo, patients; conditions: after 4 weeks
Experimental: 4. The action of diacetylrhein was investigated in 23 patients (12/11) with osteoarthrosis in a randomised double blind study using the “double dummy technique” (compatibility study). The dosage administered was 50 mg of diacetylrhein twice daily and 250 mg of naproxen three times daily. The period of treatment was 4 weeks. The test parameters were the oesophagogastroduodenoscopic findings before and after the therapy. Only patients with normal mucosal findings or with slight mucosal lesions (grade 1) were used in the study.

cotton pellet granuloma = test: Cotton pellet granuloma in rats; type: in vivo, rat
Experimental: The effectiveness of diacetylrhein was determined in chronic inflammation models after oral administration. The following experimental models were used: cotton pellet granuloma in rats and arthrosis in rabbits induced by the intraarticular administration of vitamin A. a) Cotton pellet granuloma in rats. Young sexually mature rats (n=10) were given 25, 50 or 100 mg diacetylrhein/kg or 5 mg indomethacin/kg or 100 mg acetylsalicylic acid/kg daily for 5 days. A control group only treated with water was also used. Implantation of the pellets took place on the first day of treatment.

[3] = test system: osteoarthrosis of the spine and of the knee; test: Clinical open study with physiotherapy control; type: in vivo, patients
Experimental: 2. In an open running study with control, there was investigated the action of diacetylrhein against osteoarthrosis of the spine and of the knee in 70 patients (35/35). The dosage administered was 100 mg of diacetylrhein per day. The period of treatment was 60 days and the period of observation was 75 days. The test parameters were pain and movement limitation. The parameters were evaluated according to a score system. The control group comprised 35 patients in the case of which exclusively physiotherapeutic measures were carried out. Physiotherapy was also carried out in the diacetylrhein treatment group.

localised arthrosis = test: Clinical single blind crossover study against naproxen; type: in vivo, patients
Experimental: 3. The action of diacetylrhein in the case of localised arthrosis in 20 patients was investigated in a single blind crossover study against naproxen. […] Subsequently, there followed a three day wash-out phase and a further treatment with 250 mg of naproxen twice daily for a further 20 days. In the second group, the reverse sequence was used. The period of treatment was, in all, 43 days. The test parameters of pain, compression pain, passive movement pain, functional limitation and swelling were determined according to a score system.

in vivo = conditions: rat, mouse, cat
[4] = crossover study, 43 days in all

SMILES: CC(=O)Oc1ccccc1C(=O)O [acetylsalicylic acid, reference compound]
Clinical signs of arthrosis (disturbances of movement) ([1]; 15 mg/kg/day for 8 weeks, positive control group): improved significantly

SMILES: CC(=O)Oc1cccc2c1C(=O)c1c(OC(C)=O)cc(C(=O)O)cc1C2=O [diacetylrhein, Diacetylrhein]
Erosions of the gastric mucosa (gastric mucosa; single administration of 400 mg/kg): did not give rise to any erosions | Mucosal damage (gastric mucosa; twice daily 100 mg/kg over 3 days): did not initiate any mucosal damage | Improvement in all test parameters (pain and movement symptoms, functional limitation, compatibility) in comparison with the initial values ([2]; 50 mg twice daily, P<0.01): statistically significant rate of improvement | Night pain and pressure pain after discontinuation, in comparison with the naproxen/placebo collective ([2]; 30 days after discontinuation, 5% level): difference was also verified | Spontaneous pain and active and passive movement pain after discontinuation, in comparison with the naproxen/placebo collective ([2]; days 90 and 120, placebo after-treatment, P<0.01): statistically significant superiority | Patients with mucosal lesions of grade 2 (endoscopic findings) (osteoarthrosis; 50 mg twice daily, one case): 10% | Clinical signs of arthrosis (disturbances of movement) ([1]; 5 mg/kg/day for 8 weeks, curative): improved significantly | Macroscopically and microscopically recognisable joint changes ([1]; rabbits, 3 mg/kg/day for 8 weeks, in comparison with the control group): significantly reduced | Fresh and dry weights of the granuloma (cotton pellet granuloma; rats n=10, oral, 25, 50 or 100 mg/kg daily for 5 days, in comparison with the control group): significant and clearly dosage-dependent reduction | Weights of the thymus and adrenals (cotton pellet granuloma; rats, during the 5 days treatment): did not change | Action on granuloma compared with reference drugs (cotton pellet granuloma; rats, oral, 100 mg diacetylrhein/kg daily for 5 days vs 5 mg indomethacin/kg or 100 mg acetylsalicylic acid/kg): corresponded to about the action of 5 mg indomethacin or of 100 mg acetylsalicylic acid | Effect after discontinuation of the treatment ([3]; 100 mg per day for 60 days, observation 75 days): continuing therapeutic effect (hang-over effect) | Pain and movement limitation (all parameters, score system) versus control group ([3]; 100 mg per day, 60 days, plus physiotherapy, control physiotherapy only): statistically significant superiority | Pain, compression pain, passive movement pain, functional limitation and swelling (score system) in comparison with naproxen (localised arthrosis; 50 mg twice daily for 20 days vs 250 mg naproxen twice daily for 20 days, crossover): superiority | Clinical laboratory parameters (localised arthrosis; [4]): no changes | Side effects (localised arthrosis; [4]): No noteworthy side effects | LD50 (in vivo): 119 to 339 mg/kg | LD50 (in vivo; po): 1900 to 7900 mg/kg

SMILES: CC(C)Cc1ccc(C(C)C(=O)O)cc1 (stereo not shown) [ibuprofen]
Erosions of the gastric mucosa (gastric mucosa; in vivo, 200 mg/kg): distinct mucosal damages

Diameter of the erosions (gastric mucosa; in vivo, 10 mg/kg, 3 days): 1 to 3 mm
SMILES: COc1ccc2c(c1)c(CC(=O)O)c(C)n2C(=O)c1ccc(Cl)cc1 [indomethacin]
Mucosal damage (gastric mucosa; in vivo, 10 mg/kg): certainly did | Erosions of the gastric mucosa (gastric mucosa; in vivo, 20 mg/kg): distinct mucosal damages

Patients with mucosal lesions of grade 2, 3 and 4 (endoscopic findings) (osteoarthrosis; 250 mg three times daily, 5 patients): 50%
SMILES: COc1ccc2cc([C@H](C)C(=O)O)ccc2c1 [naproxen, reference compound]
Improvement in all test parameters (pain and movement symptoms, functional limitation, compatibility) in comparison with the initial values ([2]; 750 mg daily, P<0.05): statistically significant rate of improvement
